This is an account of results in PMC11003491 (Journal of Enzyme Inhibition and Medicinal Chemistry, 2023).

For data set [1], the target named is EGFR-WT (Homo sapiens, UniProt P00533). As to the kind of experiment: biochemical. The conditions noted are these: EGFR WT IC50, five concentrations.
For data set [2], the target named is HER-2 (Homo sapiens, UniProt P04626). As to the kind of experiment: HER-2 Kinase Assay Kit. It is filed as biochemical.
For data set [3], the system named is breast MCF7 cells. In words: Cell cycle analysis by flow cytometry. Particulars: MCF7, compound at IC50 concentration, 24 h. It is filed as cell-based, human. (In general: Flow cytometry measures light scatter and fluorescence of single cells or particles in a stream.)
Data set [4] relates to MCF7 breast cells. As to the kind of experiment: Apoptosis by Annexin-V-FITC/PI flow cytometry. In kind it is cell-based, human. Particulars: MCF7, compound at IC50, 24 h.
In data set [5] the test system is A549 small lung cancer cell line. In words: MTT cell viability assay, A549. Particulars: Homo sapiens, A549, 48 h, read-out: A549 IC50, MTT, 48 h, mean of six values. It is filed as cell-based.
For data set [6], the system named is MCF-7. The conditions noted are these: read-out: cytotoxicity against MCF-7 IC50; cited from earlier work.

Chain of EGFR-WT (P00533 25-1210): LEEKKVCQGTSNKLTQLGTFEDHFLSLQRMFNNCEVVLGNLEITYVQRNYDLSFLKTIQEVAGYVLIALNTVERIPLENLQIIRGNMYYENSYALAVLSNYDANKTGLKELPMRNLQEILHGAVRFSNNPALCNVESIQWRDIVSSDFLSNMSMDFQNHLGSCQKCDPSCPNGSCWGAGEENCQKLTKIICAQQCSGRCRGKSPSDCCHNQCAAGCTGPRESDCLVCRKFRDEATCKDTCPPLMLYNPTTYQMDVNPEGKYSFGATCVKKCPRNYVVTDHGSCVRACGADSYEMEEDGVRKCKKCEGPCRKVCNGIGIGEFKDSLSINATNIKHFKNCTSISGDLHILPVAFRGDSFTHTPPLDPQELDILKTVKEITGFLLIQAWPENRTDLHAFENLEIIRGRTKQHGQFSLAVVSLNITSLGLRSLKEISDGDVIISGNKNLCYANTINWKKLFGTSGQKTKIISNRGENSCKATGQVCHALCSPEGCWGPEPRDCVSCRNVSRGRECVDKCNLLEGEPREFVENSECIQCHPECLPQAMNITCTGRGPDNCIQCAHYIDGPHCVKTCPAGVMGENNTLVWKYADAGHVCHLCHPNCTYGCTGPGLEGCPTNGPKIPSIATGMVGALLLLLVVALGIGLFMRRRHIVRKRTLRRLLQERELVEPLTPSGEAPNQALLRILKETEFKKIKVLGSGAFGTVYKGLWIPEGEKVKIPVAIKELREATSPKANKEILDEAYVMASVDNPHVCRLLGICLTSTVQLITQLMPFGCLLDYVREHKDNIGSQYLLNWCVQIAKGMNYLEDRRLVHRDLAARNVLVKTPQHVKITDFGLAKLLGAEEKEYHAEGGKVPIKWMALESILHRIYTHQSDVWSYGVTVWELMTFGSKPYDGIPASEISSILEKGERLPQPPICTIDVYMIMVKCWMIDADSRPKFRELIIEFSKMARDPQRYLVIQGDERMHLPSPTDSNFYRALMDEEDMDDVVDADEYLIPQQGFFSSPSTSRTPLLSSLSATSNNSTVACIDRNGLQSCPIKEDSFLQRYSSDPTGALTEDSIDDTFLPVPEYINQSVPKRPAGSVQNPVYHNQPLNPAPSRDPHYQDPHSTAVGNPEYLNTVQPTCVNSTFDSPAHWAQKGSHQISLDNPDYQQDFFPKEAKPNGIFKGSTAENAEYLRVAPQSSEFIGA
Chain of HER-2 (P04626 23-1255): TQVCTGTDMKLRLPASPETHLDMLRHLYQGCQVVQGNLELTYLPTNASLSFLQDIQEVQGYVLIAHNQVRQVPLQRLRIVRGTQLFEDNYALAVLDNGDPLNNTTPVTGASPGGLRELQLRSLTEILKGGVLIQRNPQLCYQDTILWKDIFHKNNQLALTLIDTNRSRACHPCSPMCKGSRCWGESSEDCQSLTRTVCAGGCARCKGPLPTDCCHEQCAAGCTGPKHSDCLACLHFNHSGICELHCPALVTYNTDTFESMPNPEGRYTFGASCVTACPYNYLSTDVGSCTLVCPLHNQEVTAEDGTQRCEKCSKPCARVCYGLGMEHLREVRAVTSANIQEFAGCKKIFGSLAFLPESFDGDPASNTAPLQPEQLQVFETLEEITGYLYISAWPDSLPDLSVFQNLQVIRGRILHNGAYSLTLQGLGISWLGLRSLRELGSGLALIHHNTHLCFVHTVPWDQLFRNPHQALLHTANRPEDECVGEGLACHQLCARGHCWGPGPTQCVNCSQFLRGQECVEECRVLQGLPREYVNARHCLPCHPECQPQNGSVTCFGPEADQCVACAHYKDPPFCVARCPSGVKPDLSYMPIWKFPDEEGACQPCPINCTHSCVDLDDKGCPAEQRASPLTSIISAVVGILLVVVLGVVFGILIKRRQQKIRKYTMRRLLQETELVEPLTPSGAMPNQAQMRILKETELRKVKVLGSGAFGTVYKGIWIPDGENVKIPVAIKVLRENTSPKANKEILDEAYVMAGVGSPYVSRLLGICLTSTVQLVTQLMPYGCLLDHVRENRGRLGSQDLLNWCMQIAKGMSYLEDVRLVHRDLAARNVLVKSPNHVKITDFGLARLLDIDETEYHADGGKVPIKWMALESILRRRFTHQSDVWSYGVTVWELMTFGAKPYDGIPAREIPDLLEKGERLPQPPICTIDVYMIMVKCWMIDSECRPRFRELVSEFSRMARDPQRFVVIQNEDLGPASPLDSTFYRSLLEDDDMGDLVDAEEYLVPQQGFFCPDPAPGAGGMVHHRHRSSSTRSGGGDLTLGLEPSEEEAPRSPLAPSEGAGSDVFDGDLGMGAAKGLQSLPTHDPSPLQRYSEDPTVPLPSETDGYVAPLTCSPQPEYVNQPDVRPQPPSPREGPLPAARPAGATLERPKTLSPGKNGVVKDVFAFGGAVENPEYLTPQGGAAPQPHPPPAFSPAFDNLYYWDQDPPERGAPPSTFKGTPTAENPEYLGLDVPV

For `COc1ccc(-c2nn(-c3ccc(S(C)(=O)=O)cc3)cc2/C=N/N=c2\[nH]c(-c3ccc(Br)cc3)cs2)cc1` [Compound 18c, (E)-4–(4-bromophenyl)-2-((E)-((3–(4-methoxyphenyl)-1–(4-(methylsulfonyl)phenyl)-1H-pyrazol-4-yl)methylene)hydrazono)-2,3-dihydrothiazole], the IC50 – broadly, the point on the concentration scale where inhibition reaches its midpoint – in data set [1] is 226 nM; in data set [2], 144 nM.
Turning to `COc1ccc(-c2nn(-c3ccc(S(C)(=O)=O)cc3)cc2C=N/N=c2\[nH]c(-c3ccc([N+](=O)[O-])cc3)cs2)cc1` [Compound 18d, (E and Z)-2-((E)-((3–(4-methoxyphenyl)-1–(4-(methylsulfonyl)phenyl)-1H-pyrazol-4-yl)methylene)hydrazono)-4–(4-nitrophenyl)-2,3-dihydrothiazole], inhibition in data set [1] was half-maximal at 388 nM (IC50). For the same compound, the IC50 in data set [2] turned out to be 195 nM. Moreover, in data set [3], the “%G0–G1” value is given as 62.43% and the “%G2-M” value is given as 4.39%. Besides, in data set [4], the “Apoptosis Early” value stood at 12.58%, the “Apoptosis Late” value is 27.45% and the Necrosis came to 6.52%.
As to `CC(C)Cc1ccc(-c2nn(-c3ccc(S(C)(=O)=O)cc3)cc2/C=N/N=c2\[nH]c(-c3ccc([N+](=O)[O-])cc3)cs2)cc1` [Compound 18f, (E)-2-((E)-((3–(4-isobutylphenyl)-1–(4-(methylsulfonyl)phenyl)-1H-pyrazol-4-yl)methylene)hydrazono)-4–(4-nitrophenyl)-2,3-dihydrothiazole], the results for the IC50 in data set [5], in data set [1] and in data set [2] were 1640 to 14300 nM, 190 nM and 201 nM, respectively.
For `C#Cc1cccc(Nc2ncnc3cc(OCCOC)c(OCCOC)cc23)c1` [erlotinib], the IC50 in data set [6] is 20 nM.
